The results in this text go back to patent US20250041284A1, “TREATMENT OF NEUROLOGICAL DISORDERS” (Praxis Precision Medicines, Inc., priority 2022, published 2025).

Series [1] can be described thus: Phase 1 clinical trial, single ascending dose (Part A), healthy volunteers. Format: in vivo, human. The conditions noted are these: healthy participants, single oral doses up to 45 mg. The source says:
This is a trial to assess the safety, tolerability, pharmacokinetics (PK), and pharmacodynamics (PD) of Compound 1 in healthy participants aged 18 to 55 years (inclusive). The trial is initially comprised of 2 parts, with 1 additional optional part, as follows: • Part A is randomized, double-blinded, and placebo-controlled. Part A is designed to investigate the safety, PK, and PD of single ascending doses of Compound 1. • Part B is randomized, double-blinded, and placebo-controlled. Part B is designed to investigate the safety, PK, and PD of multiple ascending doses (selected based on the results from Part A) of Compound 1. • Part C (optional) is a randomized, open-label, crossover design food effect evaluation to investigate the PK of a single dose (selected based on the results from Part A) of Compound 1 in the fasted and fed state.
Safety and tolerability assessments for Parts A, B, and C will include vital signs, 12-lead ECGs, physical examinations, clinical laboratory tests, and the C-SSRS (for Part B).
Healthy participants will be enrolled to receive single ascending oral doses of Compound 1 or placebo on Day 1. FIG. 14A is an illustration of the dosing scheme for Part A (single ascending dose) of the trial. Dose escalation in Part A will initially be conducted in up to a total of 4 planned cohorts (Cohorts A1 to A4). Following completion of Cohort A4, up to an additional 3 escalation cohorts may be added. […] Doses may be adjusted upward or downward based on safety, tolerability, and PK data from the preceding cohorts. Cohorts after A4 will be numbered sequentially (A5, A6, etc.). […]
Compound 1 will be administered to Cohort A1 participants at the starting dose of 5 mg. […] The safety and tolerability of each sentinel participant will be monitored until Day 2 and will be reviewed prior to dosing the remainder of participants in the cohort. […]
Cohorts will be dosed in an escalating order. […] If the current dose level is determined to be safe and tolerated by the SRC, the next dose cohort will be randomized to receive the selected dose of active Compound 1 or placebo. […]

In series [2] the test system is spontaneous locomotor activity in male CD-1 mice. The series is described as follows: Spontaneous locomotor activity (sLMA) (Example 4). Format: in vivo, mouse. The method, then:
(§1) Food and water were available ad libitum.
(§2) Dosing solutions were prepared on each experiment day. […] All solutions were protected from light. Samples from dosing solutions were stored at 4° C.
(§3) The sLMA test was carried out over two days. Half of the mice from each treatment group was tested on each day.
(§4) Animals were p.o. administered Compound 1 or 35% HPBCD (vehicle) 30 minutes prior to the sLMA test.
(§5) All mice were anesthetized with CO2. […] The supernatant plasma was pipetted into Eppendorf tubes.
(§6) An aliquot of 20 μL unknown sample, calibration standard, quality control, dilute quality control, single blank and double blank sample was added to a 1.5 mL tube. Each sample (except the double blank) was quenched with 300 μL IS solution (double blank sample was quenched with 300 μL ACN), and then the mixture was vortex-mixed well for at least 15 seconds and centrifuged for 15 minutes at 12000 g, 4° C. 65 μL supernatant was transferred to a 96-well plate and centrifuged for 5 minutes at 3220 g, 4° C. Then 3 μL supernatant was directly injected for LC-MS/MS analysis.
(§7) Brain homogenate was prepared by homogenizing brain tissue with 5 volumes (w:v) of cold 15 mM PBS/MeOH (V:V, 2:1). An aliquot of 40 μL unknown sample, calibration standard, quality control, dilute quality control, single blank and double blank sample was added to a 1.5 mL tube. Each sample (except the double blank) was quenched with 600 μL IS solution (double blank sample was quenched with 600 μL ACN), and then the mixture was vortex-mixed well for at least 15 seconds and centrifuged for 15 minutes at 12000 g, 4° C. 65 μL supernatant was transferred to a 96-well plate and centrifuged for 5 minutes at 3220 g, 4° C. Then 3 μL of the supernatant was directly injected for LC-MS/MS analysis.

A short description of series [3]: Spontaneous locomotor activity (sLMA) (Example 4). The format is in vivo, mouse. Conditions: male, CD-1, mouse, in vivo, po, 30 min post-dose, 30-minute test. Here is the method: as §1, §2, §3, §4, §5, §6, §7

Each structure is given as a SMILES string. “Also recorded” adds a separate entry of the source.

For orientation: TD50 means the 50% point of the dose-response relation for the toxic effect studied. For the compound `CCOC(F)(F)c1nnc2ccc(-c3cnc(OCC(F)(F)F)c(F)c3)cn12` [Compound 1], in series [1], the “most frequently reported TEAEs” value was “headache and fatigue”; the safety and tolerability entry was “safe and generally well tolerated”; the “severity of treatment-emergent adverse events (TEAEs)” value is recorded as “mild in severity”. The “total traveling distance in the 30-minute sLMA test” value in series [2] (10 and 20 mg/kg p.o.) was “significantly reduced total traveling distance; also recorded: significantly reduced locomotor activity”. Further, the “sLMA TD50” value in series [2] (p.o., 30 min post-dose, 30-minute test) came to 10.27 mg/kg. Besides, the “sLMA plasma TC50” value in series [2] (plasma concentration) was found to be 1123 ng/g. The TD50 in series [3] was found to be 10.3 mg/kg.
